We go through eight compounds from ChEMBL document CHEMBL1201862, “PubChem BioAssay data set” (2004).

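Results reflect a 48-hour exposure of cells in 96-well plates to compound at five concentrations. GI50: concentration for 50% inhibition of growth.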 Calls of active or inactive are those of the source. No stated cut-off is given here; in the data, active = GI50 up to about 1.1 µM and inactive = higher. A value given as a limit tells only on which side of the number the result lay.

Some test systems named below: CAKI-1; MDA-N; BT-549; OVCAR-4; SN12C; OVCAR-8; T47D; CCRF-CEM; SNB-19; DU-145; PC-3; SK-MEL-5; UACC-62; NCI-H226; TK-10; MCF7; SK-OV-3; SF-539; NCI/ADR-RES; RXF 393.
Holding throughout (test): DTP human tumour cell line panel, 48 h

With `O=C(/N=N/c1ccccc1Br)NNc1ccccc1Br`, the GI50 (in general, the concentration that inhibits growth by half) is 33 µM (inactive) in the assay on CAKI-1; 55.8 µM (inactive) in the assay on MDA-N; 82.8 µM (inactive) in the assay on BT-549; 56.2 µM (inactive) in the assay on OVCAR-4; 77.6 µM (inactive) in the assay on SN12C; > 100 µM (inactive) in the assay with OVCAR-8. In addition, the GI50 in the assay with T47D is 13.7 µM (inactive); with CCRF-CEM, 31 µM (inactive); in the assay on SNB-19, > 100 µM (inactive); in the assay with DU-145 it was > 100 µM (inactive); in the assay with PC-3, 38.2 µM (inactive); in the assay with SK-MEL-5, 48.4 µM (inactive). The results for the GI50 in the assay with UACC-62, with NCI-H226 and in the assay on TK-10 were 48.8 µM (inactive), > 100 µM (inactive) and > 100 µM (inactive), respectively.
For `CC1(C)OCC(C2CCC3(C)C4=CCC5C(C)(C)C(O)CCC5(C)C4CCC23C)CC(O)C1O` (configuration not stated), the GI50 was 14 µM (inactive) in the assay with CAKI-1; 20.7 µM (inactive) in the assay with MCF7; 18.3 µM (inactive) in the assay on SK-OV-3; 17.9 µM (inactive) in the assay with MDA-N; 15.9 µM (inactive) in the assay on BT-549; 14.1 µM (inactive) with OVCAR-4. For the same compound, the GI50 is 18.8 µM (inactive) with SF-539; 18.7 µM (inactive) in the assay on SN12C; 17.5 µM (inactive) in the assay with OVCAR-8; 8.61 µM (inactive) with T47D; 25.8 µM (inactive) with CCRF-CEM; 14.8 µM (inactive) with SNB-19. The GI50 in the assay on DU-145 is 14.7 µM (inactive); in the assay on PC-3 it was 11.3 µM (inactive); in the assay on SK-MEL-5, 15.1 µM (inactive); in the assay with NCI/ADR-RES it was 20.3 µM (inactive); in the assay on UACC-62, 14.5 µM (inactive); in the assay with NCI-H226 it was 17.3 µM (inactive). Further, the GI50 with TK-10 is 13.6 µM (inactive).
Regarding `O=[N+]([O-])c1ccc2c(/N=N/c3c(O)ccc4ccccc34)c(O)cc(S(=O)(=O)O)c2c1`, the GI50 with CAKI-1 is 4.86 µM (inactive); with MCF7 it was 49.9 µM (inactive); with SK-OV-3, 36.4 µM (inactive); with MDA-N it was 15.5 µM (inactive); in the assay with BT-549 it was 26.9 µM (inactive); with OVCAR-4, 35.2 µM (inactive). Further, the GI50 in the assay on SF-539 is 16.5 µM (inactive); in the assay with SN12C, 25.6 µM (inactive); in the assay on OVCAR-8 it was 5.28 µM (inactive); with RXF 393, 14.8 µM (inactive); in the assay on CCRF-CEM, 0.869 µM (active); with SNB-19 it was 15 µM (inactive). Besides, the GI50 in the assay with DU-145 is 36.1 µM (inactive); in the assay on PC-3, 6.98 µM (inactive); with SK-MEL-5 it was 11.2 µM (inactive); in the assay with NCI/ADR-RES, 6.92 µM (inactive); with UACC-62, 2.51 µM (inactive); in the assay with NCI-H226, 17.5 µM (inactive). In addition, the GI50 in the assay on TK-10 was 37.1 µM (inactive).
For the compound `N=C(N)N/N=C/c1c(-c2ccc(Cl)cc2)nc2sc(Cl)cn12`, the GI50 with CAKI-1 was 1.5 µM (inactive); with MCF7 it was 1.53 µM (inactive); in the assay on SK-OV-3 it was 1.93 µM (inactive); with MDA-N it was 1.72 µM (inactive); in the assay with BT-549, 1.27 µM (inactive); in the assay on OVCAR-4, 1.02 µM (active). Moreover, the GI50 was 1.27 µM (inactive) in the assay on SF-539; 1.77 µM (inactive) in the assay on SN12C; 1.27 µM (inactive) with OVCAR-8; 1.12 µM (inactive) in the assay on T47D; 1.86 µM (inactive) in the assay with SNB-19; 1.95 µM (inactive) with DU-145. For the same compound, the GI50 was 3 µM (inactive) with PC-3; 1.62 µM (inactive) with SK-MEL-5; 1.79 µM (inactive) in the assay on NCI/ADR-RES; 1.78 µM (inactive) with UACC-62; 1.94 µM (inactive) in the assay with NCI-H226; 1.72 µM (inactive) in the assay with TK-10.
In the case of `Cn1ccc(C(=O)NCCCCCNC(=O)c2ccn(C)c(=O)c2O)c(O)c1=O`, the GI50 in the assay on CAKI-1, in the assay with MDA-N, with BT-549, with OVCAR-4, with SN12C and in the assay with OVCAR-8 was > 100 µM (inactive) in each case. Moreover, the GI50 in the assay with T47D, in the assay with CCRF-CEM, with SNB-19, in the assay on DU-145, in the assay with PC-3 and with SK-MEL-5 was > 100 µM (inactive) in each case. Further, the GI50 in the assay on NCI/ADR-RES, in the assay on UACC-62, in the assay with NCI-H226 and in the assay on TK-10 was > 100 µM (inactive) each time.
Take `CN1CCN(C(=S)N(C(=O)c2ccc(Cl)cc2)c2ccccc2)CC1`: the GI50 in the assay with MCF7, in the assay on MDA-N, in the assay on BT-549, in the assay on OVCAR-4, with SN12C and in the assay on OVCAR-8 was > 100 µM (inactive) throughout. The GI50 in the assay with T47D was > 100 µM (inactive); with RXF 393, > 100 µM (inactive); in the assay with CCRF-CEM, > 10 µM (inactive); in the assay with SNB-19, > 100 µM (inactive); with DU-145, > 100 µM (inactive); in the assay with SK-MEL-5, > 100 µM (inactive). Besides, the GI50 with UACC-62, in the assay on NCI-H226 and with TK-10 was > 100 µM (inactive) each time.
On to `O=C(NC(CO)Cc1ccc(Oc2cc(CC(CO)NC(=O)OCc3ccccc3)ccc2OC(=O)OCc2ccccc2)cc1)OCc1ccccc1` (configuration not stated), for which the GI50 with CAKI-1 is 26 µM (inactive); in the assay on MCF7 it was 11.8 µM (inactive); in the assay on SK-OV-3 it was 21.3 µM (inactive); with MDA-N, 16.6 µM (inactive); in the assay on BT-549, 11.7 µM (inactive); in the assay with OVCAR-4 it was 18.8 µM (inactive). Moreover, the GI50 is 20.1 µM (inactive) in the assay with SF-539; 19.1 µM (inactive) with SN12C; 15.4 µM (inactive) with OVCAR-8; 5.18 µM (inactive) with T47D; 4.28 µM (inactive) in the assay with CCRF-CEM; 22.4 µM (inactive) in the assay with SNB-19. Also, the GI50 in the assay with DU-145 was 21 µM (inactive); in the assay on PC-3, 11.4 µM (inactive); in the assay with NCI/ADR-RES, 28.4 µM (inactive); in the assay with NCI-H226, 16.9 µM (inactive); with TK-10 it was 20.7 µM (inactive).
As to `CCOP(=O)(OCC)C1CC(n2cc(C)c(=O)[nH]c2=O)OC1CO` (configuration not stated), the GI50 in the assay on CAKI-1, with MCF7, in the assay on MDA-N, in the assay with BT-549, with OVCAR-4 and in the assay with SF-539 was > 100 µM (inactive) in each case. The GI50 in the assay on SN12C, in the assay with OVCAR-8, with T47D, with RXF 393, in the assay on CCRF-CEM and in the assay on SNB-19 was > 100 µM (inactive) in each case. Besides, the GI50 in the assay on DU-145, in the assay on PC-3, in the assay on SK-MEL-5, in the assay on UACC-62, in the assay on NCI-H226 and in the assay on TK-10 was > 100 µM (inactive) each time.
